Test results published in patent US20070149485A1, “SELECTED DOSAGE FOR THE TREATMENT OF CARDIOVASCULAR AND RELATED PATHOLOGIES” (Medicure International, Inc., priority 2005, published 2007).

Experiments:
[1] = system: high-risk patients undergoing CABG surgery with cardiopulmonary bypass; experiment: Intravenous P5P in high-risk patients undergoing CABG surgery (Example 2, protocol of Example 1 repeated); type: in vivo, human; details: CK-MB cut-off 100 ng/ml
Method: The randomized, double-blind placebo-controlled, dose-ranging, parallel-arm multi-center study on high-risk patients undergoing CABG surgery with cardiopulmonary bypass of Experiment 1 is repeated using a protocol as described in Experiment 1, with the difference that the placebo/drug is administered intravenously, in an intravenous dose pharmacokinetically approximating the dosage given enterally in Experiment 1.
Approximately 3000 high-risk pre-CABG patients are screened and randomized to […], prior to their bypass surgery, as follows. Patients are either placed in a control group (placebo), treated intravenously with 5.00 mg/day of P5P, or treated intravenously with 23.33 mg/day of P5P.
Patients are identified as “high risk” if they had two or more of the following risk factors:
• Age greater than 65 years; • Current smoker; • History of diabetes mellitus requiring treatment other than diet; • Evidence of left ventricular dysfunction or congestive heart failure; • History of a previous non-disabling stroke, transient ischemic attack, or carotid endarterectomy; • Urgent CABG intervention defined as the need to stay in the hospital (although the patient may be operated on within a normal scheduling routine); • History of myocardial infarction that occurred more than 48 hours but less than 6 weeks prior to CABG surgery; • Prior peripheral artery surgery or angioplasty; • Moderate renal dysfunction defined as creatinine>133 μmol/L (1.5 mg/dl), but <250 μmol/L (2.8 mg/dl); and • Presence of at least one asymptomatic carotid artery stenosis (>50%) either in one or two carotid arteries.
The first dose of study medication is administered at 3-10 hours prior to CABG surgery. In the event of surgery delay or rescheduling, a second pre-operative dose of P5P is administered so that all patients receive study medication 3-10 hours before surgery. Treatment continues for 30 days after surgery (post operative day (POD) 30). Patients receive follow-up evaluations up to and including postoperative day on POD 30 and on POD 90.
Patients are measured for combined incidence of cardiovascular death and nonfatal myocardial infarction (MI) up to and including post-operative day 30 (POD 30). Patients are also measured for nonfatal myocardial infarction alone.
All deaths without an identifiable non-cardiovascular cause are considered of cardiovascular origin.
Cerebral infarction (stroke) is defined clinically as any new sudden onset focal neurological deficit lasting at least 24 hours as assessed by a neurologist and after neuroimaging (computed tomography [CT] brain scan or magnetic resonance imaging [MRI]) excludes an intracerebral hemorrhage. […]

[2] = system: animal model of ischemic brain injury; details: animal model of ischemic brain injury (Wang, et al, J. Neurosurg. 2005); cited from earlier work

**Q.** With `Cc1ncc(COP(=O)(O)O)c(C=O)c1O` [P5P, 3-hydroxy-2-methyl-5-[(phosphonooxy)methyl]-4-pyridine-carboxaldehyde] as the molecule, how does the “reducing instances of myocardial infarction” value ([1]; intravenous 5.00 mg/day) read?
**A.** highly effective

**Q.** And the “reducing total incidents (myocardial infarction, cerebral infarction, or death)” value ([1]; intravenous 5.00 mg/day, better than 23.33 mg/day)?
**A.** highly effective

**Q.** And the “reducing instances of myocardial infarction” value ([1]; intravenous 23.33 mg/day)?
**A.** highly effective

**Q.** And the “reducing total incidents (myocardial infarction, cerebral infarction, or death)” value ([1]; intravenous 23.33 mg/day)?
**A.** highly effective

**Q.** And the neuroprotective effects [2]?
**A.** neuroprotective effects
